According to US20150031572A1, “MEANS AND METHODS FOR ASSESSING NEURONAL TOXICITY” (priority 2012, published 2015):
Structures can show the parent of a compound that is named as a salt. Marks after values point to notes of the source that are not given here.

Assay: Plasma metabolite profiling (GC-MS, LC-MS, SPE-LC-MS) of rats dosed once daily over 28 days; treatment ratios versus untreated control
Assay type: in vivo, rat
How it was run: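 Male and female rats (5/sex/group) dosed once daily for 28 days; fasted anaesthetized animals bled retro-orbitally (EDTA plasma) on days 7, 14, 28, stored −80 °C under N2. Polar and lipid fractions profiled by GC-MS (derivatized), LC-MS/MRM; steroids by online SPE-LC-MS. Pool-normalized data; treatment ratios vs sex-matched controls, Welch test p-values.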

[1] = plasma, female rats, day 7, high dose, Table 4a
[2] = plasma, female rats, day 7, high dose, Table 4b
[3] = plasma, female rats, day 7, high dose, Table 6c
[4] = plasma, female rats, day 7, high dose, Table 6d
[5] = plasma, female rats, day 14, high dose, Table 4a
[6] = plasma, female rats, day 14, high dose, Table 4b
[7] = plasma, female rats, day 14, high dose, Table 6c
[8] = plasma, female rats, day 14, high dose, Table 6d
[9] = plasma, female rats, day 28, high dose, Table 4a
[10] = plasma, female rats, day 28, high dose, Table 4b
[11] = plasma, female rats, day 28, high dose, Table 6c
[12] = plasma, female rats, day 28, high dose, Table 6d
[13] = plasma, male rats, day 7, high dose, Table 3a
[14] = plasma, male rats, day 7, high dose, Table 3b
[15] = plasma, male rats, day 14, high dose, Table 3a
[16] = plasma, male rats, day 14, high dose, Table 3b
[17] = plasma, male rats, day 28, high dose, Table 3a
[18] = plasma, male rats, day 28, high dose, Table 3b

Compound: O=C1Cc2cc(CCN3CCN(c4nsc5ccccc45)CC3)c(Cl)cc2N1 [Ziprasidone hydrochloride]
- Ceramide (d18:1,C24:1), ratio versus control [1]: 1.23
- Docosapentaenoic acid (C22:cis[7,10,13,16,19]5), ratio versus control [1]: 2.26*
- Elaidic acid (C18:trans[9]1), ratio versus control [1]: 1.52*
- Galactose, lipid fraction, ratio versus control [1]: 1.46*
- Myristic acid (C14:0), ratio versus control [1]: 1.53*
- Phosphatidylcholine (C16:0,C16:0), ratio versus control [1]: 1.4*
- Progesterone, ratio versus control [1]: 9.81*
- TAG No 07, ratio versus control [1]: 3.4*
- Creatinine, ratio versus control [2]: 0.87
- Glutamate, ratio versus control [2]: 0.67*
- Glycine, ratio versus control [2]: 0.86*
- Lactate, ratio versus control [2]: 0.6*
- Myristic acid (C14:0), ratio versus control [2]: 1.53
- Normetanephrine, ratio versus control [2]: 0.73*
- Phosphocreatine, ratio versus control [2]: 0.61*
- Serotonin (5-HT), ratio versus control [2]: 0.11*
- Uric acid, ratio versus control [2]: 0.51*
- 4-Hydroxysphinganine (t18:0, Phytosphingosine), total, ratio versus control [3]: 1.49*
- Docosahexaenoic acid (C22:cis[4,7,10,13,16,19]6), ratio versus control [3]: 1.7*
- Docosapentaenoic acid (C22:cis[7,10,13,16,19]5), ratio versus control [3]: 2.26*
- Galactose, lipid fraction, ratio versus control [3]: 1.46*
- Palmitic acid (C16:0), ratio versus control [3]: 1.56*
- Phosphatidylcholine (C16:0,C16:0), ratio versus control [3]: 1.4*
- Phosphatidylcholine (C16:0,C22:6), ratio versus control [3]: 1.02
- Phosphatidylcholine No 02, ratio versus control [3]: 1.17*
- TAG (C16:0,C16:1), ratio versus control [3]: 4.38*
- TAG (C16:0,C18:1,C18:3), ratio versus control [3]: 2.8*
- TAG (C16:0,C18:2), ratio versus control [3]: 2.47*
- TAG (C18:2,C18:2), ratio versus control [3]: 2.44*
- TAG (C18:2,C18:3), ratio versus control [3]: 3.48*
- TAG (C18:3,C18:2,C18:1), ratio versus control [3]: 3.89*
- TAG No 059, ratio versus control [3]: 3.12*
- 4-Hydroxyphenylpyruvate, ratio versus control [4]: 0.42*
- Glycine, ratio versus control [4]: 0.86*
- Lactate, ratio versus control [4]: 0.6*
- Lysophosphatidylcholine (C16:0), ratio versus control [4]: 0.99*
- Uric acid, ratio versus control [4]: 0.51*
- Ceramide (d18:1,C24:1), ratio versus control [5]: 1.47*
- Docosapentaenoic acid (C22:cis[7,10,13,16,19]5), ratio versus control [5]: 1.55*
- Elaidic acid (C18:trans[9]1), ratio versus control [5]: 0.97
- Galactose, lipid fraction, ratio versus control [5]: 1.17*
- Myristic acid (C14:0), ratio versus control [5]: 1.09
- Phosphatidylcholine (C16:1,C18:2), ratio versus control [5]: 1.06
- Progesterone, ratio versus control [5]: 1.28
- TAG No 07, ratio versus control [5]: 0.62
- myo-Inositol, lipid fraction, ratio versus control [5]: 1.26*
- Creatinine, ratio versus control [6]: 1.02
- Glutamate, ratio versus control [6]: 0.71*
- Glycine, ratio versus control [6]: 0.86*
- Lactate, ratio versus control [6]: 0.66
- Myristic acid (C14:0), ratio versus control [6]: 1.09
- Normetanephrine, ratio versus control [6]: 0.88
- Serotonin (5-HT), ratio versus control [6]: 0.59
- Uric acid, ratio versus control [6]: 0.5*
- 4-Hydroxysphinganine (t18:0, Phytosphingosine), total, ratio versus control [7]: 1.43*
- Docosahexaenoic acid (C22:cis[4,7,10,13,16,19]6), ratio versus control [7]: 1.43*
- Docosapentaenoic acid (C22:cis[7,10,13,16,19]5), ratio versus control [7]: 1.55*
- Galactose, lipid fraction, ratio versus control [7]: 1.17*
- Phosphatidylcholine (C16:0,C20:5), ratio versus control [7]: 0.99
- Phosphatidylcholine (C16:0,C22:6), ratio versus control [7]: 1.22*
- Phosphatidylcholine (C16:1,C18:2), ratio versus control [7]: 1.06
- Phosphatidylcholine No 02, ratio versus control [7]: 1.19*
- TAG (C16:0,C16:1), ratio versus control [7]: 0.81
- TAG (C16:0,C18:1,C18:3), ratio versus control [7]: 0.76
- TAG (C16:0,C18:2), ratio versus control [7]: 0.91
- TAG (C18:2,C18:2), ratio versus control [7]: 0.81
- TAG (C18:2,C18:3), ratio versus control [7]: 0.76
- TAG (C18:3,C18:2,C18:1), ratio versus control [7]: 0.91
- TAG No 059, ratio versus control [7]: 0.84
- 4-Hydroxyphenylpyruvate, ratio versus control [8]: 0.21*
- Glycine, ratio versus control [8]: 0.86*
- Lactate, ratio versus control [8]: 0.66
- Lysophosphatidylcholine (C16:0), ratio versus control [8]: 1
- Uric acid, ratio versus control [8]: 0.5*
- Ceramide (d18:1,C24:1), ratio versus control [9]: 1.2
- Docosapentaenoic acid (C22:cis[7,10,13,16,19]5), ratio versus control [9]: 1.54*
- Elaidic acid (C18:trans[9]1), ratio versus control [9]: 1.18
- Galactose, lipid fraction, ratio versus control [9]: 1.22
- Myristic acid (C14:0), ratio versus control [9]: 1.18
- Phosphatidylcholine (C16:1,C18:2), ratio versus control [9]: 1.5*
- Progesterone, ratio versus control [9]: 2.41*
- TAG No 07, ratio versus control [9]: 1.02
- myo-Inositol, lipid fraction, ratio versus control [9]: 1.2
- Creatinine, ratio versus control [10]: 0.89*
- Glutamate, ratio versus control [10]: 0.76*
- Glycine, ratio versus control [10]: 0.91
- Lactate, ratio versus control [10]: 0.62*
- Myristic acid (C14:0), ratio versus control [10]: 1.18
- Normetanephrine, ratio versus control [10]: 0.95
- Phosphocreatine, ratio versus control [10]: 0.47
- Serotonin (5-HT), ratio versus control [10]: 1.37
- Uric acid, ratio versus control [10]: 0.73*
- Docosahexaenoic acid (C22:cis[4,7,10,13,16,19]6), ratio versus control [11]: 1.26
- Docosapentaenoic acid (C22:cis[7,10,13,16,19]5), ratio versus control [11]: 1.54*
- Galactose, lipid fraction, ratio versus control [11]: 1.22
- Palmitic acid (C16:0), ratio versus control [11]: 1.2*
- Phosphatidylcholine (C16:0,C20:5), ratio versus control [11]: 1.17*
- Phosphatidylcholine (C16:1,C18:2), ratio versus control [11]: 1.5*
- Phosphatidylcholine No 02, ratio versus control [11]: 1.2*
- TAG (C16:0,C16:1), ratio versus control [11]: 1.75*
- TAG (C16:0,C18:1,C18:3), ratio versus control [11]: 1.3*
- TAG (C16:0,C18:2), ratio versus control [11]: 1.38*
- TAG (C18:2,C18:3), ratio versus control [11]: 1.46*
- TAG (C18:3,C18:2,C18:1), ratio versus control [11]: 1.44*
- TAG No 059, ratio versus control [11]: 1.58*
- 4-Hydroxyphenylpyruvate, ratio versus control [12]: 1.02
- Glycine, ratio versus control [12]: 0.91
- Lactate, ratio versus control [12]: 0.62*
- Lysophosphatidylcholine (C16:0), ratio versus control [12]: 0.98*
- Uric acid, ratio versus control [12]: 0.73*
- 3-Methoxytyrosine, ratio versus control [13]: 1.12
- Arginine, ratio versus control [13]: 1.22*
- Tryptophan, ratio versus control [13]: 1.1
- Glycine, ratio versus control [14]: 0.82*
- Threonic acid, ratio versus control [14]: 0.66*
- Arginine, ratio versus control [15]: 1.11*
- myo-Inositol-2-phosphate, lipid fraction, ratio versus control [15]: 1.44*
- Glycine, ratio versus control [16]: 0.95
- Threonic acid, ratio versus control [16]: 0.52*
- 3-Methoxytyrosine, ratio versus control [17]: 1.47*
- Arginine, ratio versus control [17]: 0.98
- Tryptophan, ratio versus control [17]: 1.18*
- myo-Inositol-2-phosphate, lipid fraction, ratio versus control [17]: 1.63*
- Glycine, ratio versus control [18]: 0.86*
- Threonic acid, ratio versus control [18]: 0.63*
- 3-Methoxytyrosine, ratio versus control (rat, in vivo): 1.33*
- 4-Hydroxysphinganine (t18:0, Phytosphingosine), total, ratio versus control (rat, in vivo): 1.16*
- Palmitic acid (C16:0), ratio versus control (rat, in vivo): 1.12*
- Phosphatidylcholine (C16:0,C16:0), ratio versus control (rat, in vivo): 1.32*
- Phosphatidylcholine (C16:0,C20:5), ratio versus control (rat, in vivo): 1.05*
- Phosphatidylcholine (C16:0,C22:6), ratio versus control (rat, in vivo): 1.15*
- Phosphatidylcholine (C16:1,C18:2), ratio versus control (rat, in vivo): 1.41*
- TAG (C18:2,C18:2), ratio versus control (rat, in vivo): 1.41*
- Tryptophan, ratio versus control (rat, in vivo): 1.16*
- myo-Inositol, lipid fraction, ratio versus control (rat, in vivo): 1.41*
- myo-Inositol-2-phosphate, lipid fraction, ratio versus control (rat, in vivo): 1.41*
